Measurements published in ChEMBL document CHEMBL6092154, “Design, synthesis, and evaluation of a novel TRAIL-activated HDAC6 inhibitor for the treatment of pulmonary fibrosis” (Bioorg Med Chem, 2024).

Key:
Histone deacetylase 2 = Histone deacetylase 2 (Homo sapiens, UniProt Q92769); experiment: Inhibition of HDAC2 (unknown origin) at 1 uM incubated for 30 mins by fluorometric analysis
NIH3T3 = experiment: Antiproliferative activity against mouse NIH/3T3 cells assessed as inhibition of cell growth incubated for 24 to 48 hrs by CCK8 assay; format: functional, cell-based
[1] = molecular target: T1, Protein deacetylase HDAC6 (Homo sapiens) (UniProt Q9UBN7); experiment: Inhibition of HDAC6 (unknown origin) at 1 uM incubated for 30 mins by fluorometric analysis
T1 sequence (whole entry): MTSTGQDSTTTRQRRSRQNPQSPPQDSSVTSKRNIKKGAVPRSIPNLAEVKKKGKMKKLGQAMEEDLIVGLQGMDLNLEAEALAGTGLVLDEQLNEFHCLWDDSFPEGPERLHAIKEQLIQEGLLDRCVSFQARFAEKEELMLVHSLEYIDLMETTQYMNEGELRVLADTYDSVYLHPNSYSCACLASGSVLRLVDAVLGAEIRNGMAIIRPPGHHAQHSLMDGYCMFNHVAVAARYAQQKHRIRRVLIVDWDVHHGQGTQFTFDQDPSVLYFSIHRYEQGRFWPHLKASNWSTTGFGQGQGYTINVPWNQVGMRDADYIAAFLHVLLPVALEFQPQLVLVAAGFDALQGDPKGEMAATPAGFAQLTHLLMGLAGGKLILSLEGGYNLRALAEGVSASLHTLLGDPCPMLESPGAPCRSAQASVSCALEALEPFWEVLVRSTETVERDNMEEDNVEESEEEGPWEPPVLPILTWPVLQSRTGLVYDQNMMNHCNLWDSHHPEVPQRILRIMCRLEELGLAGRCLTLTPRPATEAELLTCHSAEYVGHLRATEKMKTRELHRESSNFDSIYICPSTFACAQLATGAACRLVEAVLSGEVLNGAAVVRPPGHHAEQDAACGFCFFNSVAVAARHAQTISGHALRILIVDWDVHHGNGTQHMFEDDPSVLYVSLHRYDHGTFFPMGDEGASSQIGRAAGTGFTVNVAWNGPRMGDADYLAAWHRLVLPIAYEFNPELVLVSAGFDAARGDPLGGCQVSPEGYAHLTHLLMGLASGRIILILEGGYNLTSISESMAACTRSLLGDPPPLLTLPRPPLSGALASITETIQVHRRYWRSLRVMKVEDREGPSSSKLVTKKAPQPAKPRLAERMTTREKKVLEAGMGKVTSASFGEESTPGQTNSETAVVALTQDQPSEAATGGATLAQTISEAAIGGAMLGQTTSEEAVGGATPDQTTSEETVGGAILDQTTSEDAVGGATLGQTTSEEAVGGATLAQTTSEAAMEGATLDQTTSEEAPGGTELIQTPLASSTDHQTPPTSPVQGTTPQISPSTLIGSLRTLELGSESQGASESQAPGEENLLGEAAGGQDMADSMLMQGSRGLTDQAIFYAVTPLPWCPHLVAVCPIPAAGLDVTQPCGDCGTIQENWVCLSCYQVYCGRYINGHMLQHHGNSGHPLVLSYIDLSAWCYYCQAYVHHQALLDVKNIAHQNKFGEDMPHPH

[2] = molecular target: T2, Histone deacetylase 8 (Homo sapiens) (UniProt Q9BY41); experiment: Inhibition of HDAC8 (unknown origin) at 1 uM incubated for 30 mins by fluorometric analysis
T2 sequence (whole entry): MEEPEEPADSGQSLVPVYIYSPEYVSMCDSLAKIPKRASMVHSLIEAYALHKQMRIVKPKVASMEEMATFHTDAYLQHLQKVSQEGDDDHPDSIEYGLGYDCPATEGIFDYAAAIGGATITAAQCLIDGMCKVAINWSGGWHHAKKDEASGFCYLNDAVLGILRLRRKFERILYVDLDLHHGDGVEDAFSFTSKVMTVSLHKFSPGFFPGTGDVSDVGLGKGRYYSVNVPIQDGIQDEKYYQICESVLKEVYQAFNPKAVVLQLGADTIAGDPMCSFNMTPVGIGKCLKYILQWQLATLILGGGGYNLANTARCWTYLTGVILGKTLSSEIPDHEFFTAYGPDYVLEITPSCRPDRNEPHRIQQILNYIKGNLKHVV

[3] = molecular target: Histone deacetylase 1 (Homo sapiens) (UniProt Q13547); experiment: Inhibition of HDAC1 (unknown origin) at 1 uM incubated for 30 mins by fluorometric analysis
Chain of Histone deacetylase 1 (Homo sapiens) (Q13547 whole entry): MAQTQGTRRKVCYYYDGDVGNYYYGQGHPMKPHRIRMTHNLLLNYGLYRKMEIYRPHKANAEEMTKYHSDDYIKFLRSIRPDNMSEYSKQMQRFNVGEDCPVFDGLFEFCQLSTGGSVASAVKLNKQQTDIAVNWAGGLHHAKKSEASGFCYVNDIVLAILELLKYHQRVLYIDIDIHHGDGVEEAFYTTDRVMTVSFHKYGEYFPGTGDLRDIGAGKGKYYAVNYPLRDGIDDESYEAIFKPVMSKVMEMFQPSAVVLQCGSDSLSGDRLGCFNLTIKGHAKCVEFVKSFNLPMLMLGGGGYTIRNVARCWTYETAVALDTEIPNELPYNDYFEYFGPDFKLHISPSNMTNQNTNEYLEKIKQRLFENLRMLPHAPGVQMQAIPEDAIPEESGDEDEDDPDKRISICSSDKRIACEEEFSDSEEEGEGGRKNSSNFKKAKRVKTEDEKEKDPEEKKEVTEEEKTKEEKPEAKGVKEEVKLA

Fibroblast = experiment: Antiproliferative activity against human primary fibroblasts assessed as inhibition of cell growth incubated for 24 to 48 hrs by CCK8 assay; format: functional, cell-based
[4] = molecular target: T3, Protein deacetylase HDAC6 (Homo sapiens, UniProt Q9UBN7); experiment: Inhibition of HDAC6 (unknown origin) incubated for 30 mins by fluorometric analysis
T3 sequence (Q9UBN7 whole entry): T1 sequence (whole entry)

RPMI-8226 = experiment: Antiproliferative activity against human RPMI-8226 cells assessed as inhibition of cell growth incubated for 24 to 48 hrs by CCK8 assay; format: functional, cell-based
Histone deacetylase 3 = Histone deacetylase 3 (Homo sapiens, UniProt O15379); experiment: Inhibition of HDAC3 (unknown origin) at 1 uM incubated for 30 mins by fluorometric analysis
Chain of Histone deacetylase 3 (O15379 whole entry): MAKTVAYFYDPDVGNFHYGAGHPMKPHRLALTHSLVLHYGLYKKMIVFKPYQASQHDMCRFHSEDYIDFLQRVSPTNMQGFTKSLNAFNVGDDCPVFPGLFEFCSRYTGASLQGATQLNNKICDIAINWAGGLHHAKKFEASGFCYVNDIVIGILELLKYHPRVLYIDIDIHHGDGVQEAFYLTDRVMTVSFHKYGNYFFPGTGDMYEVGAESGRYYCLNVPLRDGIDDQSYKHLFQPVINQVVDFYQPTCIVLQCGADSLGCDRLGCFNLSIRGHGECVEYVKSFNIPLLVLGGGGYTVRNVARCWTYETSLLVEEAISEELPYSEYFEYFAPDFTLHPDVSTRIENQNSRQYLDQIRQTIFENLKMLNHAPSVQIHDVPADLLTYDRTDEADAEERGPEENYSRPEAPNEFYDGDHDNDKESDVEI

Chain of Histone deacetylase 2 (Q92769 whole entry): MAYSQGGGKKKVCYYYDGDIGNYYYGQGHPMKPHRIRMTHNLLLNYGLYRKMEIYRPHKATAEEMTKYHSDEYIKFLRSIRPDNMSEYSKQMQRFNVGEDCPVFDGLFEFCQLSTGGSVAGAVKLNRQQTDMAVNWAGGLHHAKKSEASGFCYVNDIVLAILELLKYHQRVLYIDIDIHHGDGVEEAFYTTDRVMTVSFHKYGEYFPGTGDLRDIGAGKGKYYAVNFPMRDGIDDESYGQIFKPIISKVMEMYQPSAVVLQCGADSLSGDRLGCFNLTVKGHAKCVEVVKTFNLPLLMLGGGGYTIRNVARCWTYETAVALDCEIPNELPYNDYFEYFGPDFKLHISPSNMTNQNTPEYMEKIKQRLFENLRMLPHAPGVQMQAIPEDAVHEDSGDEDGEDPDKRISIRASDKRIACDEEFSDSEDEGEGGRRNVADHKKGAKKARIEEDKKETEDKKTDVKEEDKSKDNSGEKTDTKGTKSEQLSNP

| Structure (SMILES) | inhibition (Histone deacetylase 2) | IC50 (NIH3T3) | inhibition [1] | inhibition [2] | inhibition [3] | IC50 (Fibroblast) | IC50 [4] | IC50 (RPMI-8226) | inhibition (Histone deacetylase 3) |
| --- | --- | --- | --- | --- | --- | --- | --- | --- | --- |
| O=C(NO)c1ccc(CN2C(=O)C3=C(CCN(Cc4cccnc4)C3)N3CCN=C23)cc1 | 46.3% | 8400 nM | 95.1% | 66.4% | 9.3% | 4580 nM | 137 nM | 2880 nM | 36.2% |
| O=C(NO)c1ccc(CN2C(=O)C3=C(CCN(Cc4cccc(C(F)(F)F)c4Cl)C3)N3CCN=C23)cc1 | 60.8% | 6710 nM | 94.1% | 31% | 18.3% | 111000 nM | 60.1 nM | 49400 nM | 52.7% |
| O=C(CCCCCCNC(=O)c1cnc(N(c2ccccc2)c2ccccc2)nc1)NO [RICOLINOSTAT] | – | 3530 nM | 98.5% | – | – | 35100 nM | – | 850 nM | – |
| Cc1ccccc1CN1CCC2=C(C1)C(=O)N(Cc1ccc(C(=O)NO)cc1)C1=NCCN12 | 60.5% | 5900 nM | 94.7% | 69.8% | 32.4% | 59200 nM | 48 nM | 10700 nM | 51.2% |
| O=C(NO)c1ccc(CN2C(=O)C3=C(CCN(Cc4cccc(Br)c4)C3)N3CCN=C23)cc1 | 63.9% | 100 nM | 93.6% | 76% | 36.4% | 47400 nM | 31.5 nM | 1860 nM | 56.6% |
| COc1cccc(CN2CCC3=C(C2)C(=O)N(Cc2ccc(C(=O)NO)cc2)C2=NCCN23)c1 | 57.6% | 11400 nM | 95.4% | 72.2% | 59.3% | 55200 nM | 104 nM | 100 nM | 52.3% |
| O=C(NO)c1ccc(CN2C(=O)C3=C(CCN(Cc4cccc(F)c4)C3)N3CCN=C23)cc1 | 61.9% | 6510 nM | 97.1% | 75% | 47.9% | 26700 nM | 64.4 nM | 1580 nM | 56.4% |
| O=C(NO)c1ccc(CN2C(=O)C3=C(CCN(Cc4ccc(Cl)c(C(F)(F)F)c4)C3)N3CCN=C23)cc1 | 62.7% | 9880 nM | 96.2% | 48.2% | 27.2% | 45300 nM | 36.8 nM | 1080 nM | 43.8% |
| O=C(NO)c1ccc(CN2C(=O)C3=C(CCN(Cc4ccccc4)C3)N3CCN=C23)cc1 | 56.8% | 1000 nM | 97.2% | 72.8% | 68.3% | 30600 nM | 65.4 nM | 620 nM | 51.9% |
| Cc1cccc(CN2CCC3=C(C2)C(=O)N(Cc2ccc(C(=O)NO)cc2)C2=NCCN23)c1 | 61.7% | 90 nM | 93.8% | 74.9% | 44.7% | 50700 nM | 54.8 nM | 1060 nM | 50.6% |
| Cc1ccc(CN2CCC3=C(C2)C(=O)N(Cc2ccc(C(=O)NO)cc2)C2=NCCN23)cc1 | 58.4% | 1630 nM | 91.3% | 63.6% | 31.8% | 136000 nM | 50.9 nM | 13300 nM | 53.1% |
